According to patent US8580842B2, “Heteroaryl-substituted 1,3-dihydroindol-2-one derivatives and medicaments containing them” (Abbott GmbH & Co. KG, priority 2003, dated 2013):
Counter-ions that a name gives are not always drawn.

These compounds were tested against T1, human V1b receptors (Homo sapiens, UniProt P47901) (assay: Vasopressin V1b receptor binding assay). Conditions: membranes from CHO-K1 cells expressing human V1b receptors, displacement of 1.5 nM 3H-AVP; read-out: Binding affinity for the vasopressin V1b receptor.
T1 construct: expressed in transfected cells; host or cells: CHO-K1 (membrane preparation V1b-3H2)
T1 sequence (P47901 1-424): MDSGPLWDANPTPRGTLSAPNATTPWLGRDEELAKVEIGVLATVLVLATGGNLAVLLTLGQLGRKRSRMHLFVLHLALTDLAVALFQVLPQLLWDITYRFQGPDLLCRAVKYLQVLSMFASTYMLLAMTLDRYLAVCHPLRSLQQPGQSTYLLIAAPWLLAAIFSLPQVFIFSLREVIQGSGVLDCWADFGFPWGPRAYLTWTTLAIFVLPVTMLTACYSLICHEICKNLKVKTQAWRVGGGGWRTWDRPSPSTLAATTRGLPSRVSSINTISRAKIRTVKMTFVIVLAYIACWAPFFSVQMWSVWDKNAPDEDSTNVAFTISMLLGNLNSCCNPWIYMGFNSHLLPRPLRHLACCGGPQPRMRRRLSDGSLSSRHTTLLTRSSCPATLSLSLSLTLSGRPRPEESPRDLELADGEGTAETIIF
Method: Vasopressin V1b Receptor Binding Assay
The binding of the compounds of this invention to the vasopressin V1b receptor was determined with the following assay:
Compounds were dissolved in a concentration of 10^−2 M or 10^−3 M in DMSO. Further dilutions were performed with water.
The procedure for the binding assay was based on the method of Tahara et al. (Tahara A et al., Brit. J. Pharmacol. 125, 1463-1470 (1998)). Assays (0.250 ml) consisted of membranes (58 μg protein) from CHO-K1 cells permanently expressing human V1b receptors (preparation V1b-3H2, containing protease inhibitors, Roche complete Mini #1836170), 1.5 nM ^3H-AVP (8-Arg-vasopressin, NET 800) in incubation buffer (total binding) and different concentrations of test compound (displacement). Non-specific binding was defined with 10^−6 M AVP. Assays were performed in triplicate.
Incubation buffer: 50 mM Tris, 10 mM MgCl2, 0.1% BSA adjusted to pH 7.4 with HCl.
After incubation, 60 min at room temperature, bound and free radioligand was separated by filtration under vacuum through Whatman GF/B glass fibre mats using a Skatron cell harvester 7000.
Liquid scintillation counting was performed in beta-counters, Tricarb model 2000 or 2200CA (Packard). Dpm were calculated by a programme with standardisation using a standard quench series.
Evaluation of binding parameters was performed by non-linear regression analysis with SAS. The strategy of this program is similar to the program LIGAND described by Munson and Rodbard (Munson PJ and Rodbard D, Analytical Biochem 107, 220-239 (1980)).
Compound COc1ccc(S(=O)(=O)N2C(=O)C(c3cccnc3OC)(N3CC[C@H]3C(=O)N(C)C)c3cc(Cl)ccc32)c(OC)c1 (single isomer, unassigned) [Example 255] has a Ki of 50 to 500 nM.
For COc1ccccc1C1(N2C[C@H](O)C[C@H]2C(=O)N(C)C)C(=O)N(S(=O)(=O)c2sccc2OC)c2ccc(Cl)cc21 (single isomer, unassigned) [Example 256], the Ki was < 50 nM.
COc1ncccc1C1(N2C[C@H](O)C[C@H]2C(=O)N(C)C)C(=O)N(S(=O)(=O)c2cccs2)c2ccc(Cl)cc21 (single isomer, unassigned) [Example 270] was tested, and the Ki was < 50 nM.
COc1ncccc1C1(N2C[C@H](O)C[C@H]2C(=O)N(C)C)C(=O)N(S(=O)(=O)c2cccs2)c2ccc(C#N)cc21 (single isomer, unassigned) [Example 277] showed a Ki of 50 to 500 nM.
With COc1ccc(C2(N3C[C@H](O)C[C@H]3C(=O)N(C)C)C(=O)N(S(=O)(=O)c3cccs3)c3ccc(Cl)cc32)c(OC)n1 (single isomer, unassigned) [Example 280] the Ki was < 50 nM.
Work on COc1ncc(C2(N3C[C@H](O)C[C@H]3C(=O)N(C)C)C(=O)N(S(=O)(=O)c3cccs3)c3ccc(Cl)cc32)c(OC)n1 (single isomer, unassigned) [Example 281] yielded a Ki of 50 to 500 nM.
For COc1ncc(C2(N3C[C@H](O)C[C@H]3C(=O)N(C)C)C(=O)N(S(=O)(=O)c3ccc(C)cn3)c3ccc(Cl)cc32)c(OC)n1 (single isomer, unassigned) [Example 282], the Ki was < 50 nM.
COc1ccsc1S(=O)(=O)N1C(=O)C(c2cccnc2OC)(N2C[C@H](O)C[C@H]2C(=O)N(C)C)c2cc(OC(F)(F)F)ccc21 (single isomer, unassigned) [Example 286] showed a Ki of 50 to 500 nM.
With COc1ncccc1C1(N2C[C@H](O)C[C@H]2C(=O)N(C)C)C(=O)N(S(=O)(=O)c2cccc3cccnc23)c2ccc(Cl)cc21 (single isomer, unassigned) [Example 288] the Ki was < 50 nM.
COc1ccccc1C1(N2C[C@H](O)C[C@H]2C(=O)N(C)C)C(=O)N(S(=O)(=O)c2cc(Br)c(Cl)s2)c2ccc(Cl)cc21 (stereo partly drawn) [Example 33, (2S,4R)-1-[1-(4-Bromo-5-chloro-thiophene-2-sulfonyl)-5-chloro-3-(2-methoxy-phenyl)-2-oxo-2,3-dihydro-1H-indol-3-yl]-4-hydroxy-pyrrolidine-2-carboxylic acid dimethylamide trifluoroacetate] gave a Ki of 50 to 500 nM.
With COc1ccccc1C1(N2C[C@H](O)C[C@H]2C(=O)N(C)C)C(=O)N(S(=O)(=O)c2cnc(Cl)c(Br)c2)c2ccc(Cl)cc21 (stereo partly drawn) [Example 59, (2S,4R)-1-[5-Chloro-1-(5-bromo-6-chloropyridine-3-sulfonyl)-3-(2-methoxy-phenyl)-2-oxo-2,3-dihydro-1H-indol-3-yl]-4-hydroxy-pyrrolidine-2-carboxylic acid dimethylamide] the Ki was > 500 nM.
COc1ccc(S(=O)(=O)N2C(=O)C(OC(=O)Nc3ccc(Cl)cc3)(c3sccc3C)c3cc(Cl)ccc32)c(OC)c1 (stereo not drawn) [Example 63, (4-Chloro-phenyl)-carbamic acid 5-chloro-1-(2,4-dimethoxy-benzenesulfonyl)-3-(3-methyl-thiophen-2-yl)-2-oxo-2,3-dihydro-1H-indol-3-ylester] was tested, and the Ki was > 500 nM.
With COc1ccccc1C1(OC(=O)N2CCCCC2)C(=O)N(S(=O)(=O)c2cccc3cccnc23)c2ccc(Cl)cc21 (stereo not drawn) [Example 65, Piperidine-1-carboxylic acid 5-chloro-3-(2-methoxy-phenyl)-2-oxo-1-(quinoline-8-sulfonyl)-2,3-dihydro-1H-indol-3-yl ester] the Ki was 50 to 500 nM.
With COc1ccccc1C1(OC(=O)N2CCN(C3CCN(C)CC3)CC2)C(=O)N(S(=O)(=O)c2cccc3cccnc23)c2ccc(Cl)cc21 (stereo not drawn) [Example 75, 4-(1-Methyl-piperidin-4-yl)-piperazine-1-carboxylic acid 5-chloro-3-(2-methoxy-phenyl)-2-oxo-1-(quinoline-8-sulfonyl)-2,3-dihydro-1H-indol-3-yl ester bismethanesulfonate] the Ki was < 50 nM.
With COc1ncccc1C1(OC(=O)N2CCN(C3CCN(C)CC3)CC2)C(=O)N(S(=O)(=O)c2ccccc2)c2ccc(Cl)cc21 (stereo not drawn) [Example 76, 4-(1-Methyl-piperidin-4-yl)-piperazine-1-carboxylic acid 1-benzenesulfonyl-5-chloro-3-(2-methoxy-pyridin-3-yl)-2-oxo-2,3-dihydro-1H-indol-3-yl ester] the Ki was < 50 nM.
In the case of COc1ccc(S(=O)(=O)N2C(=O)C(NC(=O)C3CCN(c4ccncc4)CC3)(c3cccnc3OC)c3cc(Cl)ccc32)c(OC)c1 (stereo not drawn) [Example 82, 3,4,5,6-Tetrahydro-2H-[1,4′]bipyridinyl-4-carboxylic acid [5-chloro-1-(2,4-dimethoxy-benzenesulfonyl)-3-(2-methoxy-pyridin-3-yl)-2-oxo-2,3-dihydro-1H-indol-3-yl]-amide], the Ki is reported as < 50 nM.
With CCOc1ccccc1C1(NC(=O)N2CCN(C3CCN(C)CC3)CC2)C(=O)N(S(=O)(=O)c2cccc3cccnc23)c2ccc(OC)cc21 (stereo not drawn) [Example 83, 4-(1-Methyl-piperidin-4-yl)-piperazine-1-carboxylic acid [3-(2-ethoxy-phenyl)-5-methoxy-2-oxo-1-(quinoline-8-sulfonyl)-2,3-dihydro-1H-indol-3-yl]-amide] the Ki was < 50 nM.
With COc1ncccc1C1(OC(=O)N2CCC(N3CCN(C)CC3)CC2)C(=O)N(S(=O)(=O)c2ccccc2)c2ccc(Cl)cc21 (stereo not drawn) [Example 103, 4-(4-Methyl-piperazin-1-yl)-piperidine-1-carboxylic acid 1-benzenesulfonyl-5-chloro-3-(2-methoxy-pyridin-3-yl)-2-oxo-2,3-dihydro-1H-indol-3-yl ester] the Ki was < 50 nM.
In the case of COc1ccc(S(=O)(=O)N2C(=O)C(OC(=O)N3CCN(C4CCN(C)CC4)CC3)(c3ccccn3)c3cc(Cl)ccc32)c(OC)c1 (stereo not drawn) [Example 104, 4-(1-Methyl-piperidin-4-yl)-piperazine-1-carboxylic acid 5-chloro-1-(2,4-dimethoxy-benzenesulfonyl)-2-oxo-3-pyridin-2-yl-2,3-dihydro-1H-indol-3-yl ester trishydrochloride], the Ki is reported as < 50 nM.
In the case of COc1ccc(S(=O)(=O)N2C(=O)C(OC(=O)N3CCN(C4CCN(C)CC4)CC3)(c3cccnc3OC)c3cc(Cl)ccc32)c(OC)c1 (stereo not drawn) [Example 105, 4-(1-Methyl-piperidin-4-yl)-piperazine-1-carboxylic acid 5-chloro-1-(2,4-dimethoxy-benzenesulfonyl)-3-(2-methoxy-pyridin-3-yl)-2-oxo-2,3-dihydro-1H-indol-3-yl ester], the Ki is reported as < 50 nM.
In the case of COc1ccc(S(=O)(=O)N2C(=O)C(OC(=O)N3CCC(N4CCN(C)CC4)CC3)(c3cccnc3OC)c3cc(C)ccc32)c(OC)c1 (stereo not drawn) [Example 107, 4-(4-Methyl-piperazin-1-yl)-piperidine-1-carboxylic acid 1-(2,4-dimethoxy-benzenesulfonyl)-3-(2-methoxy-pyridin-3-yl)-5-methyl-2-oxo-2,3-dihydro-1H-indol-3-yl ester], the Ki is reported as < 50 nM.
COc1ncccc1C1(OC(=O)N2CCN(C3CCN(C)CC3)CC2)C(=O)N(S(=O)(=O)c2ccc(C#N)cc2)c2ccc(Cl)cc21 (stereo not drawn) [Example 113, 4-(1-Methyl-piperidin-4-yl)-piperazine-1-carboxylic acid 5-chloro-1-(4-cyano-benzenesulfonyl)-3-(2-methoxy-pyridin-3-yl)-2-oxo-2,3-dihydro-1H-indol-3-yl ester diacetate] was tested, and the Ki was < 50 nM.
In the case of COc1ccc(S(=O)(=O)N2C(=O)C(OC(=O)N3CCN(C4CCN(C)CC4)CC3)(c3cccnc3OC)c3cc(Cl)ccc32)cc1 (stereo not drawn) [Example 115, 4-(1-Methyl-piperidin-4-yl)-piperazine-1-carboxylic acid 5-chloro-1-(4-methoxy-benzenesulfonyl)-3-(2-methoxy-pyridin-3-yl)-2-oxo-2,3-dihydro-1H-indol-3-yl ester diacetate], the Ki is reported as < 50 nM.
Work on COc1ncccc1C1(OC(=O)N2CCN(C3CCN(C)CC3)CC2)C(=O)N(S(=O)(=O)c2ccc(C(F)(F)F)cc2)c2ccc(Cl)cc21 (stereo not drawn) [Example 122, 4-(1-Methyl-piperidin-4-yl)-piperazine-1-carboxylic acid 5-chloro-3-(2-methoxy-pyridin-3-yl)-2-oxo-1-(4-trifluoromethyl-benzenesulfonyl)-2,3-dihydro-1H-indol-3-yl ester diacetate] yielded a Ki of 50 to 500 nM.
